{"source": "paper PMC10269622", "about": "“Blapstin, a Diapause-Specific Peptide-Like Peptide from the Chinese Medicinal Beetle Blaps rhynchopetera, Has Antifungal Function” (Microbiology Spectrum, 2023)", "key": {"C. albicans ATCC 10231 [1]": {"tested_on": "C. albicans ATCC 10231", "experiment": "Intracellular ROS burst, H2DCFDA probe", "assay_type": "cell-based, Candida albicans", "details": "1×, 8×, 32× MIC, 37°C, 30 min", "protocol": "H2DCFDA is a cell-permeable probe for detecting intracellular ROS ([72]). C. albicans ATCC 10231 was cultured in YM medium to logarithmic stage in a constant-temperature shaking machine at 37°C, centrifuged at 1,000 × g for 5 min to remove the supernatant, and washed with normal saline three times, and then the fungal solution was diluted to an OD600 of 0.1. Different concentrations of blapstin (1× MIC, 8× MIC, 32× MIC) were added to diluted fungal suspension and incubated at 37°C for 30 min. H2O2 at 0.1 mM was used as the positive control, and 0.9% NaCl was used as the negative control. After incubation, the suspension was centrifuged at 1,000 × g for 5 min to discard the supernatant and leave the thallus precipitation. The H2DCFDA dye was dissolved with DMSO and diluted with 0.9% NaCl containing 15% DMSO to achieve a final concentration of 10 μM. The thallus precipitation was mixed with 1 mL of a […] H2DCFDA working solution to each tube, incubated at 37°C for 30 min, and then centrifuged at 1,000 × g for 5 min to remove the supernatant. […] One milliliter of 0.9% NaCl was added to each tube and analyzed with a multifunctional fluorescent enzyme labeling instrument (SynergyH1; Biotek, USA). The excitation/emission wavelengths were set at […], and the ROS burst was monitored. The experiment was repeated three times, with three biological replicates at a time."}, "ion channel": {"tested_on": "ion channel", "experiment": "Ion channel inhibition", "details": "stated in the discussion only, no method or channel given"}, "human erythrocytes": {"tested_on": "human erythrocytes", "experiment": "Hemolysis assay", "assay_type": "cell-based", "details": "concentration as high as 56.25 μM, 30 min, 37°C; 1% Triton X-100 as maximum hemolysis; three independent experiments", "protocol": "As previously reported ([65], [67]), hemolytic activity and cytotoxicity assays were performed using human erythrocytes and mouse macrophages (RAW 264.7 cells). These cells were obtained from Kunming Medical University and Cell Bank of Kunming Institute of Zoology, Chinese Academy of Sciences, respectively. To investigate the hemolytic activity, washed erythrocytes were diluted with normal saline into a suspension of 10^7 to 10^8 cells/mL and mixed with serial dilutions of blapstin (from 1.76 μM to 225 μM) at a 1:1 ratio, followed by incubation for 30 min at 37°C. Then, these erythrocytes were centrifuged for 15 min at 500 × g (Eppendorf, Germany; FA-45-24-11, 4°C). Next, the supernatant was collected, and the hemolysis rate (%) was measured to quantify the hemolysis of blapstin. The maximum hemolysis rate was determined using an equal volume of 1% Triton X-100 as a positive control, and the zero hemolysis rate was determined using sterile normal saline as a negative control. Hemolytic activity was calculated using the following formula: hemolysis rate (%) = (hemolysis of experimental group-negative control)/(hemolysis of positive control-negative control) × 100%. HC50 values were defined as the peptide concentrations causing 50% hemolysis of human erythrocytes."}, "C. albicans ATCC 10231 [2]": {"tested_on": "C. albicans ATCC 10231", "experiment": "Cell membrane potential changes, DiSC3(5) staining", "assay_type": "cell-based, Candida albicans", "details": "16× MIC, 8× MIC and 1× MIC; 0.5 μM DiSC3(5), 100 mM KCl, measured for 60 min; dose-dependent; weaker than 10 μM valinomycin", "protocol": "DiSC3(5) is a fluorescent probe often used as a tracer dye to assess the mitochondrial membrane potential ([71]); therefore, we assessed the effects of blapstin on the cell membrane potential changes of C. albicans ATCC 10231 using DiSC3(5) staining. C. albicans ATCC 10231 was cultured in YM medium to logarithmic stage in a constant-temperature shaking machine at 37°C, centrifuged at 1,000 × g for 5 min to remove the supernatant, and washed with normal saline three times, and then normal saline containing 100 mM potassium chloride (KCl) was used to dilute the bacterial solution to an optical density at 600 nm (OD600) of 0.1. DiSC3(5) dye was dissolved by dimethyl sulfoxide (DMSO) into the mother solution and normal saline diluted with 15% DMSO so that the final concentration of DiSC3(5) added to the bacterial solution was 0.5 μM. The mixture was added to a special fluorescent 96-well plate with 190 μL in each well. The excitation/emission wavelengths were set at 622/670 nm, measurement was carried out with a multifunctional fluorescent enzyme labeling instrument (SynergyH1; Biotek, USA) until the value of the enzyme marker was stable, and then measurement was continued for 20 min. The final concentrations were 16× MIC, 8× MIC, and 1× MIC when 10 μL blapstin was added to the experimental group. […]"}, "C. albicans [3]": {"tested_on": "C. albicans", "experiment": "Thermostability of antifungal activity (paper disk assay)", "assay_type": "physicochemical, Candida albicans", "details": "for Antifungal activity after heating: 20 μL of 225 μM, then paper disk assay on YM medium, 37°C, 18 h", "protocol": "(i) Effects of temperature. In the test of thermostability of antifungal activity, (20 μL(225 μM) of blapstin was heated at different temperatures (20°C, 40°C, 60°C, 80°C, 90°C, and 100°C) for 30 min and cooled down at 4°C ([63]). Colistin E was used as the positive control, and 1.5% NaCl was used as the negative control. Then, these samples were transferred to the paper disks in the YM solid medium with C. albicans and incubated at 37°C for 18 h for the assay of antifungal activity."}, "C. albicans [4]": {"tested_on": "C. albicans", "experiment": "pH stability of antifungal activity (paper disk assay)", "assay_type": "physicochemical, Candida albicans", "details": "30 min at room temperature, then paper disk assay, 37°C, 18 h", "protocol": "(ii) Effects of pH. In the test of pH stability of antifungal activity, 50 mg of blapstin was dissolved in 25 mL of solutions with different pH values (pH 3 to 5, 0.1 mol HCl; pH 7 to 9, 1 mmol NaOH), and the peptide solutions of different pH values were incubated at room temperature for 30 min ([63]). Colistin E was used as the positive control, and 1.5% NaCl was used as the negative control. Then, these samples were transferred to the paper disks in the YM solid medium with C. albicans and incubated at 37°C for 18 h for the assay of antifungal activity."}}, "note": "Bridge positions count the residues as written; N and C are the ends. Ends that are not written are not given here.", "data": [{"sequence": "VRVGPCDQVCSRTNPEKDECCRAHGHSGHSSCYGGRMNCYG (disulfide 6-21, 10-32, 20-39 (inferred)) [Blapstin]", "values": [{"measurement": "Change in ROS fluorescence in C. albicans", "setting": "C. albicans ATCC 10231 [1]", "result": "increased"}, {"measurement": "Ion channel inhibition activity", "setting": "ion channel", "result": "did not show ion channel inhibition activity"}, {"measurement": "Hemolytic activity against human erythrocytes", "setting": "human erythrocytes", "result": "little hemolytic activity"}, {"measurement": "Cellular DiSC3(5) fluorescence (membrane potential) compared with negative control", "setting": "C. albicans ATCC 10231 [2]", "result": "increased significantly"}, {"measurement": "Antifungal activity after heating", "setting": "C. albicans [3]; 20°C to 90°C for 30 min", "result": "full antifungal activity was retained"}, {"measurement": "Antifungal activity after heating", "setting": "C. albicans [3]; 100°C for 30 min", "result": "slightly reduced"}, {"measurement": "Thermostable up to", "setting": "C. albicans [3]; heated 30 min, read-out antifungal activity toward C. albicans", "result": "up to 90 °C"}, {"measurement": "Antifungal activity after pH exposure", "setting": "C. albicans [4]; pH 3 and pH 5 (HCl)", "result": "full antifungal activity was retained"}, {"measurement": "Antifungal activity after pH exposure", "setting": "C. albicans [4]; pH higher than 7 (NaOH, up to pH 9)", "result": "reduced gradually"}]}]}
